# Key:
# Type in all cases: in vivo
# Abcd1−/Abcd2−/− mice [1] = experiment: Treadmill test; details: four months of treatment starting at 12 months of age, belt speed 30 cm/sec, slope 20°
# Procedure: (§1) Treadmill apparatus consisted of a variable speed belt varying in terms of speed and slope. An electrified grid was located to the rear of the belt on which footshocks (0.2 mA) were administered whenever the mice fell off the belt. The treadmill apparatus (Panlab, Barcelona, Spain) consisted of a belt (50 cm long and 20 cm wide) varying in terms of speed (5 to 150 cm/s) and slope (0-25°) enclosed in a plexiglass chamber. The latency to falling off the belt (time of shocks in seconds) and the number of received shocks were measured. The mice were placed on the top of the already moving belt facing away from the electrified grid and in the direction opposite to the movement of the belt. Thus, to avoid the footshocks, the mice had to locomote forward.
# (§2) The mice were evaluated in five trials in a single-day session. In the first trial, the belt speed was set at 20 cm/s and the inclination at 50. […] When the mice were subjected to consecutive trials at increasing speeds up to 20 cm/sec and a 20° slope, no differences were detected from one session to another between the WT and Abcd1^−/Abcd2^−/− mice. However, when the belt speed was increased up to 30 cm/sec and the slope was 20°, differences were detected between the Abcd1^−/Abcd2^−/− mice and the controls because this task requires greater coordination. […]
# Abcd1−/Abcd2−/− mice [2] = experiment: Horizontal bar cross test; details: four months of treatment starting at 12 months of age
# Procedure: The bar cross test was carried out using a wooden bar of 100 cm in length and 2 cm in width (diameter). This bar is just wide enough for mice to stand on with their hind feet hanging over the edge such that any slight lateral misstep will result in a slip. […] The mice were put on one end of the bar and expected to cross to the other end. To eliminate the novelty of the task as a source of slips, all animals were given four trials on the bar the day before and at the beginning of the testing session. In an experimental session, the number of hind limb lateral slips and falls from the bar was counted on four consecutive trials. If an animal fell, it was placed back on the bar at the point at which it fell and was allowed to complete the task. The bar was cleaned with ethanol after each animal.
# Abcd1−/Abcd2−/− mice [3] = experiment: Locomotor testing overall (treadmill and bar cross), disease progression in X-ALD mice; details: four months of treatment
# Procedure: as §1, with “Thus, to avoid the footshocks, the mice had to locomote forward.” left out
# as §2, with “session.” for “session. In the first trial, the belt speed was set at 20 cm/s and the inclination at 50.”
# The bar cross test was carried out using a wooden bar of 100 cm in length and 2 cm in width (diameter). […] In an experimental session, the number of hind limb lateral slips and falls from the bar was counted on four consecutive trials. […]
SMILES,ratio between the time of shocks and the number of shocks (locomotor deficit index) (Abcd1−/Abcd2−/− mice [1]),number of slips (Abcd1−/Abcd2−/− mice [2]),time necessary to cross the bar (Abcd1−/Abcd2−/− mice [2]),progression of the disease in X-ALD mice (Abcd1−/Abcd2−/− mice [3])
CCCCCCCCc1ccc(CCC(N)(CO)CO)cc1 [Fingolimod],indistinguishable from the WT ratio,normalized,normalized,arrested the progression of the disease
CCc1cc(/C(C)=N/OCc2ccc(C3CCCCC3)c(C(F)(F)F)c2)ccc1CN1CC(C(=O)O)C1 [Siponimod],indistinguishable from the WT ratio,normalized,normalized,arrested the progression of the disease

# — US20190010535A1, “METHODS AND COMPOSITIONS FOR THE DIAGNOSIS AND FOR THE TREATMENT OF ADRENOLEUKODYSTROPHY” (FUNDACIÓ INSTITUT D'INVESTIGACIÓ BIOMÈDICA DE BELLVITGE …, priority 2015, published 2019)
